Experimental data published in ChEMBL document CHEMBL3991601, “The target landscape of clinical kinase drugs” (Science, 2017).
Calls of active or inactive are those of the source. Rule as the data show it, for most assays here: actives have a measured Kd and inactives only a lower limit.

Columns and labels:
[1] = target: T1, Interleukin-1 receptor-associated kinase 4 (Homo sapiens, UniProt Q9NWZ3)
T1 sequence (Q9NWZ3 whole entry): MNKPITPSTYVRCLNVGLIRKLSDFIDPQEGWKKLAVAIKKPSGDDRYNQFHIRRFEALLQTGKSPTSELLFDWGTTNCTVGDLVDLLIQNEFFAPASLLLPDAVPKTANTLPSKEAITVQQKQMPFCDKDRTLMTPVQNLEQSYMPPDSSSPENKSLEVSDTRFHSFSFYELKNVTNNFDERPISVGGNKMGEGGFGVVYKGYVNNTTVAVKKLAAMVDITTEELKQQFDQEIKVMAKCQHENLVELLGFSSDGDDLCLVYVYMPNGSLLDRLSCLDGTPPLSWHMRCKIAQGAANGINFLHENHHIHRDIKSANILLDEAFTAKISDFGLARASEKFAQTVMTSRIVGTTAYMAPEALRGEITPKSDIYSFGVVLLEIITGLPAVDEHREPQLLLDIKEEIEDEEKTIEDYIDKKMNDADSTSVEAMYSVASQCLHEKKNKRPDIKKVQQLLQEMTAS

[2] = target: T2, Glycogen phosphorylase, liver form (Homo sapiens, UniProt P06737); type: subcellular, K-562, COLO 205, SK-N-BE(2) and MV-4-11, Cell lysate; conditions: read-out: Kd apparent
T2 sequence (P06737 whole entry): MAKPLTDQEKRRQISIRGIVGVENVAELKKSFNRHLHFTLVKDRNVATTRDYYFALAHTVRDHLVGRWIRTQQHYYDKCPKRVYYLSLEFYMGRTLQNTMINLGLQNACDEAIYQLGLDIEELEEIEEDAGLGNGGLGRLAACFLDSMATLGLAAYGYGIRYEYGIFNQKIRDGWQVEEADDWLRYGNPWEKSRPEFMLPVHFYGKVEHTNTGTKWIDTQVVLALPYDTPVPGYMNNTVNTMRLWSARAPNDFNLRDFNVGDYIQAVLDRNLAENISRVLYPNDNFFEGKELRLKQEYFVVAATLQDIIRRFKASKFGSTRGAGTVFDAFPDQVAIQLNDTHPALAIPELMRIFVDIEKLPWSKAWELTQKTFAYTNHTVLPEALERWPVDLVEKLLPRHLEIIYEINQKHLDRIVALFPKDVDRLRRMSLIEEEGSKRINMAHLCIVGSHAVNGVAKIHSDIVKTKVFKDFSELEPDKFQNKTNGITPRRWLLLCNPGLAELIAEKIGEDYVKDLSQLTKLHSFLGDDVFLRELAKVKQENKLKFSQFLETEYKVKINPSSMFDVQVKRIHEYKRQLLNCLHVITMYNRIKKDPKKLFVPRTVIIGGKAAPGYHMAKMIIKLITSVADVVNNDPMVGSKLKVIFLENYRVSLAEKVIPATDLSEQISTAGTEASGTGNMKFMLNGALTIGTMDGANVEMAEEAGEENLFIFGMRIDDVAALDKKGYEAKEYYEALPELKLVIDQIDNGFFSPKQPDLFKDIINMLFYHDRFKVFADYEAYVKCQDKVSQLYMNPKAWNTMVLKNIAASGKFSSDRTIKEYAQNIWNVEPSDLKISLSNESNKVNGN

[3] = target: T3, ATP-dependent RNA helicase DDX1 (Homo sapiens, UniProt Q92499)
T3 sequence (Q92499 whole entry): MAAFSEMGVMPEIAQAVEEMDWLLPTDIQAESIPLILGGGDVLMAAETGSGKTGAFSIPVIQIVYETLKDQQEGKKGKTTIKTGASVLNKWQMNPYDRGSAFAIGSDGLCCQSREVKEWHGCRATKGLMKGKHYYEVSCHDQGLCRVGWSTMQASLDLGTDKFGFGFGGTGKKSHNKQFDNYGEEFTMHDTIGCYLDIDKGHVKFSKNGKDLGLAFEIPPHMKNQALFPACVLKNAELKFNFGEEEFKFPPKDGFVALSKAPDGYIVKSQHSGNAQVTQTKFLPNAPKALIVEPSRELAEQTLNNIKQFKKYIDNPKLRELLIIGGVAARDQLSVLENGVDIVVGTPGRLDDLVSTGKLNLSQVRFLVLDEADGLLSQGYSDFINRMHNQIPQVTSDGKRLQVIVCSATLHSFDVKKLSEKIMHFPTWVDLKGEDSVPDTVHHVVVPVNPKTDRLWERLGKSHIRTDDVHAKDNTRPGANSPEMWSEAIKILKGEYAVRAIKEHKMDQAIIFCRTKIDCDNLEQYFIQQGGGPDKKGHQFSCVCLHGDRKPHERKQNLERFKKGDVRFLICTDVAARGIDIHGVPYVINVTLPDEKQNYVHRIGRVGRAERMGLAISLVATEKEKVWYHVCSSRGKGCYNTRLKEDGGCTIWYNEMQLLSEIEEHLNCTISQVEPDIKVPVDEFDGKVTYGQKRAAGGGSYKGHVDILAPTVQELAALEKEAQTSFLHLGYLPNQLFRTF

[4] = target: Mitogen-activated protein kinase kinase kinase kinase 5 (Homo sapiens, UniProt Q9Y4K4)
Chain of Mitogen-activated protein kinase kinase kinase kinase 5 (Q9Y4K4 whole entry): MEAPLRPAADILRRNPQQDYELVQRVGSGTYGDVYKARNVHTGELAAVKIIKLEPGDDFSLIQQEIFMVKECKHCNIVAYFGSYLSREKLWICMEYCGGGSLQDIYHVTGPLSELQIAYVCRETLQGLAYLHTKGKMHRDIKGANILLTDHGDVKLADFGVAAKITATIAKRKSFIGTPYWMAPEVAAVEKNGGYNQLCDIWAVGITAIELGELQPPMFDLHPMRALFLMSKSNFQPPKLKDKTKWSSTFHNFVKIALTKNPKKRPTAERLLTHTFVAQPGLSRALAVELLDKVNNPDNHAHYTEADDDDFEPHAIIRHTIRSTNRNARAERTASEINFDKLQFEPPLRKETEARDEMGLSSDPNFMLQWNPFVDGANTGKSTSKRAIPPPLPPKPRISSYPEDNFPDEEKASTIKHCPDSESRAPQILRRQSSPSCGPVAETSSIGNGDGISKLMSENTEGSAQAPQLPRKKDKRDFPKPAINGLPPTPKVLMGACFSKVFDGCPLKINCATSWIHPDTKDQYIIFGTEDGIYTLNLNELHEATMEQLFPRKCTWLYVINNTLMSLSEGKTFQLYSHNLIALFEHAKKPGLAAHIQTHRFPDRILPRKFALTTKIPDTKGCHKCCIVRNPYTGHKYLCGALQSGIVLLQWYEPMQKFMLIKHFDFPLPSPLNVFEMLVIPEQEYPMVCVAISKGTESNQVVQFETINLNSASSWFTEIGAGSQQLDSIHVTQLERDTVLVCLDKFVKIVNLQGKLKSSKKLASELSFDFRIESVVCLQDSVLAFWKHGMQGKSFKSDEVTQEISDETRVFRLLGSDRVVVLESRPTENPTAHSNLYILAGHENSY

[5] = target: T4, Mitogen-activated protein kinase kinase kinase kinase 2 (Homo sapiens, UniProt Q12851)
T4 sequence (Q12851 whole entry): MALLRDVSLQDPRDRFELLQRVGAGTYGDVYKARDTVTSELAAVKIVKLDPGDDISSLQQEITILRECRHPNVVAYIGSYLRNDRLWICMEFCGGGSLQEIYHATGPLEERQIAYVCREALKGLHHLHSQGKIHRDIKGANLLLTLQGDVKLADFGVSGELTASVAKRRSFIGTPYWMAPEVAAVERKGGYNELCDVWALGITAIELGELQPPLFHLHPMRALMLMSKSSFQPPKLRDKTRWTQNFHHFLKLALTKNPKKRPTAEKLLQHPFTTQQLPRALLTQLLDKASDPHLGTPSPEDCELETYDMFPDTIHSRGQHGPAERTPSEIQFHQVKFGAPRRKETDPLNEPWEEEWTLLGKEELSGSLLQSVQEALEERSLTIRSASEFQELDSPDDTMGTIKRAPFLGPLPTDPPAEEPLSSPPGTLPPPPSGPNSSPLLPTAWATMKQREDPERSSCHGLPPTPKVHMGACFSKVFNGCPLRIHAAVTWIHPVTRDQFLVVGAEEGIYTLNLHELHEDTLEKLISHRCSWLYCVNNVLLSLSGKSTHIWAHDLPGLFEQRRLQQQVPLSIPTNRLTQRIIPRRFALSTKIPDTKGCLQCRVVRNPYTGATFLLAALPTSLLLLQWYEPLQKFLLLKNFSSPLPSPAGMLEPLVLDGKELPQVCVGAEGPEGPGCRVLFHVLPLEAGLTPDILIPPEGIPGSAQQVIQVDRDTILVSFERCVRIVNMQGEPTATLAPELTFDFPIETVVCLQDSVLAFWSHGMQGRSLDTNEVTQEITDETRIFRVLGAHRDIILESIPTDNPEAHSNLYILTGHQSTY

[6] = target: Bone morphogenetic protein receptor type-1B (Homo sapiens, UniProt O00238)
Chain of Bone morphogenetic protein receptor type-1B (O00238 whole entry): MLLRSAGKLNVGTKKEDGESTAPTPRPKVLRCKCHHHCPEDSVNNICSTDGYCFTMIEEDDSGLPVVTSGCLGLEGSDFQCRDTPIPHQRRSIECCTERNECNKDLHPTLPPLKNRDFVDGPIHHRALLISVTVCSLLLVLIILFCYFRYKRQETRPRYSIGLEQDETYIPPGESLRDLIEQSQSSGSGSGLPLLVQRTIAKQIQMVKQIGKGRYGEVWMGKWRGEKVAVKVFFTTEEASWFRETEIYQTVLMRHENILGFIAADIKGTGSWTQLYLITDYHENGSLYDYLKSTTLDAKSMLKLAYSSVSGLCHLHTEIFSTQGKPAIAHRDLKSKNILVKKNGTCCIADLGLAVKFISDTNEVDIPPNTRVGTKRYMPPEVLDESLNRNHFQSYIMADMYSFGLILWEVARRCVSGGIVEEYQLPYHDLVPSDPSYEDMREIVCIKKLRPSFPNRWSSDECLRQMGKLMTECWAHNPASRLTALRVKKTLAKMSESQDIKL
Also: in the data inactive means no Kd found up to 30 µM.

SMILES | Kd [1] | Kd [2] | Kd [3] | Kd [4] | Kd [5] | Kd [6]
CCS(=O)(=O)N1CC(CC#N)(n2cc(-c3ncnc4[nH]ccc34)cn2)C1 [BARICITINIB] | > 30 µM (inactive) | > 30 µM (inactive) | > 30 µM (inactive) | > 30 µM (inactive) | > 30 µM (inactive) | > 30 µM (inactive)
CN1N=C(N)c2cn([C@@H]3O[C@H](COP(=O)(O)O)[C@@H](O)[C@H]3O)c3ncnc1c23 [TRICIRIBINE PHOSPHATE] | > 30 µM (inactive) | > 30 µM (inactive) | > 30 µM (inactive) | > 30 µM (inactive) | > 30 µM (inactive) | –
CNC(=O)c1cc(Oc2ccc(NC(=O)Nc3ccc(Cl)c(C(F)(F)F)c3)c(F)c2)ccn1 [REGORAFENIB] | > 30 µM (inactive) | > 30 µM (inactive) | > 30 µM (inactive) | > 30 µM (inactive) | > 30 µM (inactive) | > 30 µM (inactive)
CNS(=O)(=O)Nc1nccc(Cc2c(C)c3ccc(Oc4ncccn4)cc3oc2=O)c1F [AVUTOMETINIB] | > 30 µM (inactive) | > 30 µM (inactive) | > 30 µM (inactive) | > 30 µM (inactive) | > 30 µM (inactive) | > 30 µM (inactive)
CCCS(=O)(=O)Nc1ccc(F)c(C(=O)c2c[nH]c3ncc(-c4ccc(Cl)cc4)cc23)c1F [VEMURAFENIB] | > 30 µM (inactive) | > 30 µM (inactive) | > 30 µM (inactive) | 1.8 µM (active) | – | > 30 µM (inactive)
COc1cc2nccc(Oc3ccc(NC(=O)NC4CC4)c(Cl)c3)c2cc1C(N)=O [LENVATINIB] | > 30 µM (inactive) | > 30 µM (inactive) | > 30 µM (inactive) | – | 0.578 µM (active) | > 30 µM (inactive)
Cc1cc2c(F)c(Oc3ncnn4cc(OC[C@@H](C)OC(=O)[C@H](C)N)c(C)c34)ccc2[nH]1 [BRIVANIB ALANINATE] | > 30 µM (inactive) | > 30 µM (inactive) | > 30 µM (inactive) | > 30 µM (inactive) | > 30 µM (inactive) | > 30 µM (inactive)
Cc1ccc(S(=O)(=O)Nc2nc3ccccc3nc2Nc2ccc3nsnc3c2)cc1 | > 30 µM (inactive) | > 30 µM (inactive) | > 30 µM (inactive) | > 30 µM (inactive) | > 30 µM (inactive) | > 30 µM (inactive)
C=CC(=O)N1CCC(Oc2cc3c(Nc4ccc(Cl)c(Cl)c4F)ncnc3cc2OC)CC1 [POZIOTINIB] | > 30 µM (inactive) | > 30 µM (inactive) | – | > 30 µM (inactive) | > 30 µM (inactive) | > 30 µM (inactive)
Nc1nc(N)c2nc(-c3cccc(O)c3)c(-c3cccc(O)c3)nc2n1 [TG100-115] | – | > 30 µM (inactive) | > 30 µM (inactive) | – | – | –
O=C(Nc1cccc(Cl)c1)Nc1ncc(CCNc2ncnc3ccsc23)s1 [SNS-314] | – | > 30 µM (inactive) | > 30 µM (inactive) | – | – | > 30 µM (inactive)
CN1CCN(c2ccc3nc(-c4c(N)c5c(F)cccc5[nH]c4=O)[nH]c3c2)CC1 [DOVITINIB] | – | > 30 µM (inactive) | > 30 µM (inactive) | – | – | –
CCc1cnn2c(NCc3ccc[n+]([O-])c3)cc(N3CCCC[C@H]3CCO)nc12 [DINACICLIB] | > 30 µM (inactive) | > 30 µM (inactive) | > 30 µM (inactive) | > 30 µM (inactive) | – | > 30 µM (inactive)
Cc1cn(-c2cc(NC(=O)c3ccc(C)c(Nc4nccc(-c5cccnc5)n4)c3)cc(C(F)(F)F)c2)cn1 [NILOTINIB] | – | > 30 µM (inactive) | > 30 µM (inactive) | – | – | –
COc1cc2nccc(Oc3ccc(NC(=O)Nc4cc(C)on4)c(Cl)c3)c2cc1OC [TIVOZANIB] | > 30 µM (inactive) | > 30 µM (inactive) | > 30 µM (inactive) | – | 2.38 µM (active) | > 30 µM (inactive)

Now from value to compound:

Kd [1] | Kd [2] | Kd [3] | Kd [4] | Kd [5] | Kd [6] | SMILES
> 30 µM (inactive) | > 30 µM (inactive) | > 30 µM (inactive) | > 30 µM (inactive) | > 30 µM (inactive) | > 30 µM (inactive) | C[C@@H](Nc1cc(F)cc(F)c1)c1cc(C(=O)N(C)C)cc2c(=O)cc(N3CCOCC3)oc12 [AZD-8186]
> 30 µM (inactive) | > 30 µM (inactive) | > 30 µM (inactive) | > 30 µM (inactive) | > 30 µM (inactive) | > 30 µM (inactive) | Cc1cc([C@@H](C)Nc2ccccc2C(=O)O)c2nc(N3CCOCC3)cc(=O)n2c1 [AZD-6482]
> 30 µM (inactive) | > 30 µM (inactive) | > 30 µM (inactive) | > 30 µM (inactive) | > 30 µM (inactive) | > 30 µM (inactive) | O=C(Nc1ccc(-c2ccnc(Nc3ccc(N4CCOCC4)cc3)n2)cc1)C1CCCN1 (stereo not given) [XL-019]
– | > 30 µM (inactive) | > 30 µM (inactive) | – | – | > 30 µM (inactive) | Cc1cc(Nc2cc(N3CCN(C)CC3)nc(/C=C/c3ccccc3)n2)n[nH]1 [ENMD-2076]
– | > 30 µM (inactive) | > 30 µM (inactive) | – | – | – | CCn1c(-c2nonc2N)nc2c(C#CC(C)(C)O)ncc(OC[C@H]3CCCNC3)c21 [GSK-690693]
– | > 30 µM (inactive) | > 30 µM (inactive) | – | – | > 30 µM (inactive) | Cc1nc(N)sc1-c1ccnc(Nc2ccc(N3CCOCC3)cc2)n1 [CYC-116]
> 30 µM (inactive) | > 30 µM (inactive) | > 30 µM (inactive) | > 30 µM (inactive) | – | > 30 µM (inactive) | OCCn1cc(-c2cnc3nnn(Cc4ccc5ncccc5c4)c3n2)cn1 [PF-04217903]
